Laboratory results: patent US6372791B1, “Method of promoting skin cell metabolism” (Johnson & Johnson Consumer Companies, Inc., priority 2000, dated 2002)

Tested on: primary normal human dermal fibroblasts (NHDF)
Assay: Energy production (metabolic activity) by alamarBlue REDOX indicator fluorescence
Type: cell-based
Conditions: NHDF in DMEM prepared with Evian mineral water; 10 mM of each agent; 3-hour incubation, then alamarBlue 1 hour; fluorescence ex 530 nm/em 590 nm; n=8
Method: The effects of L-carnitine and sodium pyruvate, in mineral water, on energy production were evaluated in primary normal human dermal fibroblasts (adult). Energy production in the cell is assessed using the REDOX sensitive indicator alamarBlue™ (Alamar Biosciences, Sacramento, Calif.). The native, oxidized form of alamarBlue™ is taken up readily by cells and reduced intracellularly by the mitochondrial electron transport chain, resulting in a shift in its absorbance and fluorescence. Normal human dermal fibroblasts (NHDF), obtained from Clonetics (Biowhittaker Inc., Walkersville, Md.), were cultured in Clonetics FGM2 medium and grown to confluence in 96-well plates (Costar, Cambridge, Mass.). Culture medium was then replaced with DMEM (Life Technologies, Rockville, Md.) prepared with Evian® mineral water. After 72 hours cells were treated with 10 mM L-carnitine (Biosint USA, Larchmont, N.Y.), 10 mM sodium pyruvate (American International Chemical Inc., Natick, Mass.) or 10 mM L-carnitine in combination with 10 mM sodium pyruvate. At the end of a 3-hour incubation period, alamarBlue™ was added to each well and the plates returned to the incubator. After 1 hour the fluorescence was measured using a CytoFluor® Fluorescence Plate Reader (PerSeptive Biosystems, Framingham, Mass.) set with the following filter-combination: excitation at 530 nm and emission at 590 nm.

Row | Compound | increase in metabolic activity [%]
1 | C[N+](C)(C)C[C@H](O)CC(=O)[O-] [carntine, L-carnitine] | 6.05
2 | CC(=O)C(=O)[O-].[Na+] [sodium pyruvate] | 2.16
